A short description of data set [1]: Dual luciferase splicing reporter assay (DLR assay), RBM20 co-transfected. The following applies: human; RBM20 titin reporter, N = 3; read-out: cell viability below which the splice reporter readout is affected. The format is cell-based, human. The text has this:
(§1) The objective of our study was to identify and evaluate small molecules with the potential to modulate alternative splicing via an unbiased chemical high-throughput screening approach. Using transient transfection of a dual luciferase splicing reporter assay (DLR-assay) in HEK293.EBNA cells and a RBM20 expression construct, we investigated >34.000 substances for their effect on alternative exon exclusion from our RBM20 dependent titin PEVK4-13 splicing reporter. For the primary screen (pilot screen), each compound was tested at 10 μM (single point) and compared to an untreated control. Positive hits leading to differential exon usage (exceeding three standard deviations) were picked for independent validation in 9 serial 2-fold dilutions starting at 20 μM. Compounds that produced a concentration dependent effect were validated manually in the 96-well format and cytotoxicity was evaluated. To minimize the detection of false positives, we excluded compounds with structural homology to each luciferase’s natural substrate. To determine the EC50 of candidates we calculated dose response curves using a non-linear least-squares fitting routine available within the GNUPLOT package (accessible online: http://ic50.tk/index.html). […] Compounds that produced a concentration depend effect in the DLR-assay and altered the alternative transcript levels were regarded as validated alternative splicing modulators.
(§2) Cells transfected were at a confluency of 50-60%.
(§3) 5000 HEK293.EBNA cells were seeded in clear bottom, white 384-well plates (Corning by Sigma-Aldrich Chemie GmbH, Munich, Germany) using an automated cell dispenser (Biotek, Bad Friedrichshall, Germany). 24 h after cell seeding the expression plasmids were delivered using a Freedom EVO® robotic workstation (TECAN, Maennedorf, Switzerland) equipped with a MultiChannel Arm™. Cells were transiently transfected with 45 ng plasmid DNA ([…] and 40 ng RBM20 or 24 ng of the negative control pcDNA3.1 ad 45 ng with bacterial expression plasmid pBSSK). Compounds were added to the plates the following day using the same robotic platform. Luciferase activity was determined using Dual-Glo® Luciferase Assay System (Promega GmbH, Mannheim, Germany) on an Infinite® M1000 Pro (TECAN, Maennedorf, Switzerland) plate reader around 60 hours post-transfection. Assay robustness was evaluated by calculation z’ scores using an online tool provided by the Screening Unit at FMP Berlin (http://www.screeningunit-fmp.net/tools/z-prime.php).

For data set [2], the system named is RBM20 dependent titin PEVK4-13 splicing reporter. The description is as above. Type of data set: cell-based, human. The following applies: for IC50: Homo sapiens.
Text: as §1, §2, §3

The test system of data set [3] is HEK293.EBNA cells. The experiment in a line: Cell viability, resazurin based staining (PrestoBlue). Details: species or system human. The following applies: for IC50: Homo sapiens, HEK293-EBNA.
Text: as §2

Data set [4] deals with titin minigene TTN Ex241-43 transcripts. In words: RT-PCR / RT-qPCR of transcripts from titin minigene TTN Ex241-43 (I96-98). Type of data set: cell-based, human. The text has this: The objective of our study was to identify and evaluate small molecules with the potential to modulate alternative splicing via an unbiased chemical high-throughput screening approach. Using transient transfection of a dual luciferase splicing reporter assay (DLR-assay) in HEK293.EBNA cells and a RBM20 expression construct, we investigated >34.000 substances for their effect on alternative exon exclusion from our RBM20 dependent titin PEVK4-13 splicing reporter. For the primary screen (pilot screen), each compound was tested at 10 μM (single point) and compared to an untreated control. Positive hits leading to differential exon usage (exceeding three standard deviations) were picked for independent validation in 9 serial 2-fold dilutions starting at 20 μM. Compounds that produced a concentration dependent effect were validated manually in the 96-well format and cytotoxicity was evaluated. To minimize the detection of false positives, we excluded compounds with structural homology to each luciferase’s natural substrate. To determine the EC50 of candidates we calculated dose response curves using a non-linear least-squares fitting routine available within the GNUPLOT package (accessible online: http://ic50.tk/index.html). We evaluated the effect on splice activity on the RNA level by RT-qPCR of isoforms generated from a titin minigene containing TTN Ex241-43 (corresponding to TTN I-band exon I96-98) in the presence of the potential splice modulators. […]
Total RNA from HEK293.EBNA cells was extracted using RNeasy Micro Kit (Qiagen, Hilden, Germany) according to the manufacturer’s instructions. […] Quantitative RT-PCR was performed using SYBRGreen master mix (Applied Biosystems by Thermo Fisher Scientific Inc., USA) on a 7900 HT RT-cycler (Applied Biosystems by Thermo Fisher Scientific, Inc., USA). […] To quantification gene expression, we used the ΔΔCT method normalized to 18S or to the alternative transcripts generated from the splicing reporter. PSI values were calculated as ratio of unspliced and spliced reporter transcript. […]

Data set [5] is described as follows: in vitro. The following applies: human. Here is the method: (§4) For transfection 25000 cells/well were seeded on 96-well Nunc F96 MicroWell™ plates (Life Technologies GmbH, Darmstadt, Germany) and transfected with a total of 200 ng of plasmid DNA of which 1 ng was splice reporter plus a corresponding amount of RBM20, RBFOX1 or control plasmid (pcDNA3.1) in a 20x molar excess. To deliver plasmid DNA we used the 40 kDa linear polyethylenimine (Polysciences Europe GmbH, Hirschberg, Germany) at a 1:3 ratio (DNA:PEI40). Cells transfected were at a confluency of 50-60%. Compounds were applied 24 h post-transfection at a final DMSO concentration of 1%. Luciferase activity was measured 60 hours post-transfection using the Dual-Luciferase® Reporter Assay System (Promega GmbH, Mannheim, Germany) on an Infinite® M200 Pro (TECAN, Maennedorf, Switzerland) plate reader. Ratios of firefly to renilla luciferase activity were normalized to the control (pcDNA3.1) without the splicing factor expression construct. Cell viability was measured 60 h post-transfection using a resazurin based staining of metabolically active cells (PrestoBlue®, Life Technologies GmbH, Darmstadt, Germany).
(§5) To evaluate the specificity of the splice effect, we generated an independent splice reporter based on formin-like 3 (FMNL3) and its splice factor RBFOX1 (S5 Fig). […] To exclude an unspecific effect of cell death on RBM20 dependent splicing, we used the steroidal homolog digitonin to induce cell death.

The test system of data set [6] is RBFOX1 dependent splicing of FMNL3. In words: cells. How it is done: as §4, §5
Data set [7] has as its system RBM20 protein levels. The experiment in a line: RBM20 protein expression by immunoblot in co-transfected HEK293 cells. Type of data set: cell-based, human. The following applies: 0.235 μM digoxin, co-transfected HEK293 cells. How it is done:
For immunodetection, HEK293.EBNA samples were harvested by rinsing them of the cell culture substrate using PBS at 37°C and subsequently used for downstream processing or snap frozen in liquid nitrogen. For protein extraction samples were suspended in RIPA buffer (50 mM Tris pH 8.0, 150 mM NaCl, 1% NP-40, 0.25% sodium deoxycholate, 1.0 mM EDTA; 0.1% SDS) and lysed via sonication with 20 bursts at 70% energy using a VialTweeter (Hielscher Ultrasonics GmbH, Teltow, Germany). Protein concentration was estimated after 20’ precipitation of cell debris at 13,000xg for 20 min at 4°C using BCA assay (Life Technologies GmbH, Darmstadt, Germany [23225]). Samples were kept cool at any time. Lysates were separated by SDS-PAGE [14] and blotted on PVDF membranes. Blotted antigens were probed with mouse anti-c-myc 9E10 ([M5546], Sigma-Aldrich Chemie GmbH, Munich, Germany) tag antibody at 1:2000 and detected using a sheep anti-mouse IgG-HRP (GE Healthcare Europe GmbH, Freiburg, Germany [NA9310V]) conjugate 1:5000 follow by visualization with AceGlow™ (VWR PEQL37) on a FUSION FX7 CCD camera system (Vilber Lourmat Deutschland GmbH, Eberhardzell, Germany).

Data set [8] concerns the target Na+/K+ ATPase human erythrocytes. The arrangement: method as in PMID 11072868. The following applies: cited from earlier work.
[9] abbreviates: HEK293 cells, 60 h post-transfection, RBM20/titin reporter transfected, read-out: Viability IC50.

“Also recorded” adds a separate entry of the source. Read-outs that look alike come from different tables or passages of the source. Bounds are passed on as bounds.

In the case of `C[C@@H]1CC[C@@]2(OC1)O[C@H]1[C@@H](O)[C@H]3[C@@H]4CC[C@H]5C[C@@H](O[C@@H]6O[C@H](CO)[C@H](O[C@@H]7O[C@H](CO)[C@@H](O)[C@H](O[C@@H]8OC[C@@H](O)[C@H](O)[C@H]8O)[C@H]7O[C@@H]7O[C@H](CO)[C@H](O)[C@H](O[C@@H]8O[C@H](CO)[C@@H](O)[C@H](O)[C@H]8O)[C@H]7O)[C@H](O)[C@H]6O)[C@H](O)C[C@]5(C)[C@H]4CC[C@]3(C)[C@H]1[C@@H]2C` [Digitonin], in data set [1], the viability at 36 h was less than 20%. In addition, the “effect on RBM20-mediated titin splicing (in words)” value in data set [2] (DLR assay, HEK293) is “little effect at the highest doses only; also recorded: do not interfere with RBM20 dependent splicing”. For the same compound, the IC50 was determined as 14100 ± 3980 nM in data set [2] (FLuc/RLuc ratio, HEK293 cells, 96-well format, inset table of figure, read-out: Splicing IC50) and 2670 ± 212 nM in data set [3] (setting [9]). The “effect on splicing on the mRNA level (in words)” value in data set [4] (RT-PCR of minigene, HEK293) is “no effect on the mRNA level”.

As to `C[C@H]1O[C@@H](O[C@H]2[C@@H](O)C[C@H](O[C@H]3[C@@H](O)C[C@H](O[C@H]4CC[C@@]5(C)[C@H](CC[C@@H]6[C@@H]5C[C@@H](O)[C@]5(C)[C@@H](C7=CC(=O)OC7)CC[C@]65O)C4)O[C@@H]3C)O[C@@H]2C)C[C@H](O)[C@@H]1O` [Digoxin], the “Splicing Hill Coeff.” value in data set [2] worked out at 2.8711 ± 0.6588. For the same compound, the “effect on RBM20-mediated titin splicing (in words)” value in data set [2] was “efficiently inhibit RBM20 mediated splicing”. For the same compound, the IC50 in data set [2] (HEK293, read-out: IC50 Splicing HEK293 cells) was 153 nM; in data set [3] (HEK293, read-out: IC50 viability (half-maximal lethal dose)), 132 nM; in data set [3] (setting [9]), 132 ± 6.6 nM; in data set [6] (Homo sapiens, HEK293, read-out: FMNL3/RBFOX1 Splicing IC50, FMNL3 exons 25-26 reporter co-transfected with RBFOX1, HEK293), 2600 nM; in data set [8], 0.39 nM. Also, the “Viability Hill Coeff.” value in data set [3] (dose response fit, head prints [μM], fits IC50 only) is 2.2906 ± 0.2256. In addition, in data set [3] (fit maximum of relative viability, head prints [μM], fits IC50 only), the “Viability Max” value was determined as 1.0089 ± 0.0119. The compound further displayed a viability at 36 h in data set [5] of less than 30%. Moreover, the “effect on FMNL3 splicing (in words)” value in data set [6] (concentrations of up to 20x the half-maximal lethal dose) was “not affected”. Moreover, the “RBM20 protein levels reduced to” value in data set [7] is listed as 10%. Also, the “intron retention / mRNA maturation (in words)” value in data set [4] (HEK293 transfected with RBM20 and minigene I96-98) is “does not cause intron retention”.

Source of the values: PMC5995442, “Drug discovery with an RBM20 dependent titin splice reporter identifies cardenolides as lead structures to improve cardiac filling” (PLoS ONE, 2018).
